# Tests used:
# Assay in all cases: relative viability (nuclei count vs DMSO), 5 days (fraction); higher = more cells survive
# [1] = compound: COC1=C(C=C(C=C1)C2=CC3=NC=CN3C(=N2)NC4=C(C=CC=N4)C(=O)N)OC [BAY61-3606] + N=C(N)NC(=N)NCCc1ccccc1 [Phenformin] (partner 250 µM)
# How it was run: (§1)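 Nuclei were stained with Hoechst during a one-step fixation (final 0.05% Triton X-100, 1% formaldehyde, 1 ug/ml Hoechst) carried out 5 days after dosing, then counted on 4× images. The cells, lung cancer lines in 1536-well plates, had been dosed by pin tool the day after seeding with one drug alone or a fixed anchor-drug dose plus five library-drug doses (not always all listed) in √10 steps. Relative viability is the nuclei count in treated wells divided by that in vehicle wells, and each value is the median of duplicate plates.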
# [2] = compound: COC1=C(C=C(C=C1)C2=CC3=NC=CN3C(=N2)NC4=C(C=CC=N4)C(=O)N)OC [BAY61-3606] + Cc1nc(NC(=O)N2CCC[C@H]2C(N)=O)sc1-c1ccnc(C(C)(C)C(F)(F)F)c1 [Alpelisib] (partner 2 µM)
# How it was run: as §1
# [3] = compound: COc1cccc2c1C(=O)c1c(O)c3c(c(O)c1C2=O)C[C@@](O)(C(=O)CO)C[C@@H]3O[C@H]1C[C@H](N)[C@H](O)[C@H](C)O1 [Doxorubicin] + O=C(CCCCCCC(=O)Nc1ccccc1)NO [Vorinostat] (partner 1 µM)
# How it was run: as §1
# [4] = compound: COC1=C(C=C(C=C1)C2=CC3=NC=CN3C(=N2)NC4=C(C=CC=N4)C(=O)N)OC [BAY61-3606] + CC(=O)Nc1cccc(-n2c(=O)n(C3CC3)c(=O)c3c(Nc4ccc(I)cc4F)n(C)c(=O)c(C)c32)c1 [Trametinib] (partner 0.02 µM)
# How it was run: as §1
Cell Line,relative viability ([1]; first compound 0.02 µM),relative viability ([1]; first compound 0.06325 µM),relative viability ([1]; first compound 0.2 µM),relative viability ([1]; first compound 0.6325 µM),relative viability ([1]; first compound 2 µM),relative viability ([2]; first compound 0.02 µM),relative viability ([2]; first compound 0.06325 µM),relative viability ([2]; first compound 0.2 µM),relative viability ([2]; first compound 0.6325 µM),relative viability ([2]; first compound 2 µM),relative viability ([3]; first compound 0.001 µM),relative viability ([3]; first compound 0.003162 µM),relative viability ([3]; first compound 0.03162 µM),relative viability ([3]; first compound 0.1 µM),relative viability ([4]; first compound 0.02 µM),relative viability ([4]; first compound 0.06325 µM),relative viability ([4]; first compound 0.2 µM),relative viability ([4]; first compound 0.6325 µM),relative viability ([4]; first compound 2 µM),relative viability ([3]; first compound 0.01 µM)
NCI-H727,0.68,0.554,0.542,0.553,0.541,0.611,0.615,0.609,0.721,0.488,1.33,1.09,1.13,1.19,0.392,0.382,0.423,0.42,0.387,–
NCI-H838,0.628,0.489,0.621,0.388,0.277,0.988,0.963,0.982,1.02,0.888,0.783,0.737,0.544,0.435,0.54,0.496,0.547,0.575,0.362,0.714
NCI-H1355,0.484,0.368,0.406,0.448,0.41,0.944,0.811,0.791,0.713,0.534,0.604,0.602,0.599,0.625,0.424,0.447,0.409,0.46,0.345,0.631
NCI-H1395,0.459,0.371,0.444,0.469,0.414,1.16,0.957,1.07,1.04,0.97,0.551,0.688,0.572,0.493,1.06,1.07,0.964,1.02,0.95,0.825
NCI-H1437,0.345,0.312,0.304,0.283,0.284,0.987,0.988,0.935,1.06,0.903,0.784,0.891,0.627,0.585,0.537,0.456,0.523,0.602,0.462,0.812
NCI-H1651,0.332,0.311,0.325,0.279,0.302,0.991,0.964,0.938,0.967,0.738,0.572,0.591,0.533,0.495,0.929,0.809,0.833,0.844,0.762,0.569
NCI-H1666,0.544,0.538,0.524,0.531,0.491,0.903,–,0.981,0.993,0.956,–,1.1,0.808,0.806,0.828,0.973,0.822,0.792,0.768,0.972
NCI-H1734,0.446,0.338,0.288,0.354,0.244,0.706,0.615,0.653,0.654,0.413,0.737,0.815,0.558,0.536,0.708,0.667,0.636,0.671,0.568,0.747

# — the supplement of paper PMC10307832
